“And” between values parts separate entries of the source, which are not always exact repeats. Equal values may be shown once. Toxic doses and inconclusive results are not listed. How the source made its calls: active means survival T/C of 150% or more; inactive means T/C below 125% in these data.
Tested on: P388 leukemia ip, CD2F1 mice, survival T/C
Experiment: NCI In Vivo Anticancer Drug Screen. Data for tumor model P388 Leukemia (intraperitoneal) in CD2F1 (CDF1) mice
Settings: endpoint: median survival time, higher = longer survival
Procedure, shortened: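 Mice carrying the transplanted tumor received test compound or vehicle. Survival was recorded in each group, and the value is the treated-group measurement divided by that of the vehicle-treated control group.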

[1] = dose: 50.0 mg/kg/injection, schedule: Q01DX005 (ip), vehicle: Klucel (hydroxypropylcellulose) (HPC)
[2] = dose: 100.0 mg/kg/injection, schedule: Q01DX005 (ip), vehicle: Klucel (hydroxypropylcellulose) (HPC)
[3] = dose: 200.0 mg/kg/injection, schedule: Q01DX005 (ip), vehicle: Klucel (hydroxypropylcellulose) (HPC)
[4] = dose: 50.0 mg/kg/injection, schedule: Q01DX009 (ip), vehicle: saline with Tween-80
[5] = dose: 100.0 mg/kg/injection, schedule: Q01DX009 (ip), vehicle: saline with Tween-80
[6] = dose: 25.0 mg/kg/injection, schedule: Q01DX009 (ip), vehicle: saline with Tween-80
[7] = dose: 100.0 mg/kg/injection, schedule: Q01DX009 (ip), vehicle: saline
[8] = dose: 200.0 mg/kg/injection, schedule: Q01DX009 (ip), vehicle: saline

Measured: T/C

CC(C)(C)OC(=O)C1CCON1C1OC(C(O)CO)C2OC(C)(C)OC21 (centres undefined)
inactive: [1] 100 % of control | [2] 100 % of control and 98 % of control | [3] 95 % of control and 104 % of control

CCCCCCCCCCC[N+]1(CC)CCCCC1
inactive: dose: 0.78 mg/kg/injection, schedule: Q01DX009 (ip), vehicle: saline 112 % of control and 93 % of control | dose: 1.56 mg/kg/injection, schedule: Q01DX009 (ip), vehicle: saline 100 % of control and 102 % of control | dose: 3.12 mg/kg/injection, schedule: Q01DX009 (ip), vehicle: saline 112 % of control and 97 % of control | dose: 6.25 mg/kg/injection, schedule: Q01DX009 (ip), vehicle: saline 124 % of control

CCN(C)c1cc(=O)c2c(ccc3ccccc32)o1
inactive: [4] 94 % of control | [5] 101 % of control | dose: 200.0 mg/kg/injection, schedule: Q01DX009 (ip), vehicle: saline with Tween-80 95 % of control

COC(=O)Nc1nc2ccc(OCCO)cc2[nH]1
inactive: dose: 25.0 mg/kg/injection, schedule: Q01DX005 (ip), vehicle: DMSO 104 % of control | dose: 50.0 mg/kg/injection, schedule: Q01DX005 (ip), vehicle: DMSO 100 % of control | dose: 100.0 mg/kg/injection, schedule: Q01DX005 (ip), vehicle: DMSO 104 % of control | dose: 200.0 mg/kg/injection, schedule: Q01DX005 (ip), vehicle: DMSO 103 % of control | dose: 400.0 mg/kg/injection, schedule: Q01DX005 (ip), vehicle: DMSO 101 % of control

Cc1cc(NCCO)nc2c1ccc1ccccc12
inactive: [6] 90 % of control | [4] 91 % of control | [5] 101 % of control

Cc1cccc(C)c1N=Cc1ccc([N+](=O)[O-])cc1
inactive: dose: 50.0 mg/kg/injection, schedule: Q01DX009 (ip), vehicle: saline 100 % of control | [7] 99 % of control | [8] 102 % of control

CCOC(=O)C(O)Cc1cnc2ccccc2n1 (centres undefined)
inactive: dose: 50.0 mg/kg/injection, schedule: Q01DX005 (ip), vehicle: saline with Tween-80 108 % of control | dose: 100.0 mg/kg/injection, schedule: Q01DX005 (ip), vehicle: saline with Tween-80 108 % of control | dose: 200.0 mg/kg/injection, schedule: Q01DX005 (ip), vehicle: saline with Tween-80 100 % of control

COc1ccc(CO)cc1O
inactive: [7] 105 % of control and 97 % of control | [8] 104 % of control and 107 % of control | dose: 400.0 mg/kg/injection, schedule: Q01DX009 (ip), vehicle: saline 104 % of control | dose: 600.0 mg/kg/injection, schedule: Q01DX009 (ip), vehicle: saline 95 % of control and 96 % of control

Cc1ccc2c(c1)C(C(F)(F)F)(C(F)(F)F)OC(C(F)(F)F)(C(F)(F)F)N2
inactive: dose: 50.0 mg/kg/injection, schedule: Q04DX003 (ip), vehicle: saline with Tween-80 104 % of control | dose: 100.0 mg/kg/injection, schedule: Q04DX003 (ip), vehicle: saline with Tween-80 100 % of control | dose: 200.0 mg/kg/injection, schedule: Q04DX003 (ip), vehicle: saline with Tween-80 108 % of control

CC(=O)NC(CCS)C(N)=O (centres undefined)
inactive: [1] 87 % of control | [2] 99 % of control | [3] 97 % of control

[C-]#[N+]C([N+]#[C-])=C(C)OCC
inactive: dose: 6.25 mg/kg/injection, schedule: Q01DX009 (ip), vehicle: saline with Tween-80 98 % of control | dose: 12.5 mg/kg/injection, schedule: Q01DX009 (ip), vehicle: saline with Tween-80 89 % of control | [6] 105 % of control | [7] 101 % of control

Cc1cc(O)cc(O)c1C(=O)OC1C[C@@]2(C)C1=C(CO)C[C@@H]1CC(C)(C)C[C@@H]12 (some centres undefined)
inactive: dose: 1.25 mg/kg/injection, schedule: Q01DX005 (ip), vehicle: Klucel (hydroxypropylcellulose) (HPC) 96 % of control | dose: 2.5 mg/kg/injection, schedule: Q01DX005 (ip), vehicle: Klucel (hydroxypropylcellulose) (HPC) 99 % of control | dose: 5.0 mg/kg/injection, schedule: Q01DX005 (ip), vehicle: Klucel (hydroxypropylcellulose) (HPC) 96 % of control | dose: 10.0 mg/kg/injection, schedule: Q01DX005 (ip), vehicle: Klucel (hydroxypropylcellulose) (HPC) 96 % of control | dose: 20.0 mg/kg/injection, schedule: Q01DX005 (ip), vehicle: Klucel (hydroxypropylcellulose) (HPC) 100 % of control | dose: 40.0 mg/kg/injection, schedule: Q01DX005 (ip), vehicle: Klucel (hydroxypropylcellulose) (HPC) 106 % of control | dose: 80.0 mg/kg/injection, schedule: Q01DX005 (ip), vehicle: Klucel (hydroxypropylcellulose) (HPC) 112 % of control | dose: 160.0 mg/kg/injection, schedule: Q01DX005 (ip), vehicle: Klucel (hydroxypropylcellulose) (HPC) 104 % of control

O=C1CNCC(=O)N1
inactive: dose: 50.0 mg/kg/injection, schedule: Q01DX005 (ip), vehicle: saline 110 % of control | dose: 100.0 mg/kg/injection, schedule: Q01DX005 (ip), vehicle: saline 99 % of control | dose: 200.0 mg/kg/injection, schedule: Q01DX005 (ip), vehicle: saline 100 % of control

Reference: PubChem BioAssay AID330 (DTP/NCI, 2004)
